Test results published in patent publication US20110117070A1, “COMPOSITIONS AND METHODS FOR TREATING HEADACHE” (priority 2005, published 2011).
“And” between values parts separate entries of the source, which are not always exact repeats. Equal entries are not always repeated. Where two headings read alike, the source gives them in different places.

Tests used:
[1] = Retrospective chart review of topiramate side effect profile in 20 migraine patients; assay type: in vivo, human; parameters: key: 1: mild or none; 2: tolerable, not treatment limiting; 3: warrants trial of topiramate dose reduction; 4: considering stopping topiramate treatment strongly; conditions: topiramate alone, monotherapy for at least 6 weeks; one line per patient at the indicated daily dosage
migraine [2] = assay: Retrospective chart review of migraine treatment efficacy in 20 headache clinic patients; assay type: in vivo, human; parameters: key: 1: no measurable efficacy; 2: some measurable difference in severity and or frequency of headache; 3: modest improvement in severity or frequency of headache; 4: headache frequency improvement either 50% or greater in frequency, severity or both; conditions: topiramate alone, monotherapy for at least 6 weeks; one line per patient at the indicated daily dosage
Experimental: (§1) In a headache clinic, 20 patients suffering from migraine are treated with a dosage of topiramate and then an additional, secondary therapeutic component comprising one of the following therapeutic agents, or mixture of agents: 1) a commercially available combination tablet sold under the name Migrelief® dietary supplement contains puracol feverfew extract (comprising partheolide), magnesium citrate/oxide (1:1), and riboflavin; and 2) a second medicine having the trade name Migravent® natural supplement containing butterbur extract (including petasin and isopetasin), and a blend of riboflavin, magnesium and coenzyme Q10; these combined ingredients are present in a “proprietary blend” of 876 mg.
(§2) In twenty patients suffering from migraine the effect of augmentation of topiramate treatment was formally documented. […] Patients were treated in combination therapy with topiramate and the indicated second agent for 6 weeks before side effect and efficacy data were obtained for comparison with the monotherapy data. Dosages of the second therapeutic component was as follows: Migravent: 150 mg pyrrolizidine alkaloids (PA) free) and 876 mg (Riboflavin, Magnesium, Co-enzyme Q-10 [propriety blend]); Migralief: Magnesium citrate and oxide 360 mg, riboflavin 400 mg and Puracol Feverfew (Tanacetum parthenium). […]

migraine [3] = assay: as above; assay type: in vivo, human; parameters: concentration or dose not given beside the values; conditions: topiramate alone, monotherapy for at least 6 weeks; one line per patient at the indicated daily dosage
Experimental: as §1, §2

migraine [4] = conditions: cited from earlier work; for reduction of migraine incidents vs. placebo: 50 mg/day or less
cluster headaches = conditions: cited from earlier work
Leishmania amazonensis = conditions: cited from earlier work
[5] = cited from earlier work
[6] = tested on: acute myelogenous leukemia cells; conditions: normal bone marrow cells relatively unscathed; cited from earlier work

Row | Compound | Side Effects [1] | Efficacy (migraine [2]) | Efficacy (migraine [3]) | reduction of migraine incidents vs. placebo (migraine [4]) | reduction of migraine incidents vs. placebo (migraine [4]; listed as toprimate) | Side Effects (migraine [4]; 100 mg or more per day) | prophylactic effect versus placebo (migraine [4]; 100 mg per day or greater) | patients reporting an increase in migraine and other headaches (migraine [4]; human, in vivo) | reduction of migraine frequency (migraine [4]; patients having an average of 5.5 migraine per month, placebo: one headache per month) | rapid relief of cluster headaches (cluster headaches; 50, 100, or 125 mg/day) | time to control the cluster headaches (cluster headaches; daily delivery in the 50-125 mg range) | activity against Leishmania amazonensis (Leishmania amazonensis) | solubility in water [5] | effect on acute myelogenous leukemia cells [6]
1 | 2,3:4,5-Di-O-isopropylidene-β-D-fructopyranose sulfamate [Topiramate] | 1 (4×) and 4 (8×) and 3 (6×) and 2 (2×) | 2 (9×) and 3 (8×) | 4 (headache frequency improvement either 50% or greater in frequency, severity or both) | no statistical significance | did not show statistically significant efficacy | significant unacceptable side effects | statistically significant prophylactic effects | > 1% | about 2 headaches per month | inadequate in providing rapid relief | 1-3 weeks |  |  | 
2 | C=C1C(=O)O[C@H]2[C@H]1CC/C(C)=C/CC[C@@]1(C)O[C@@H]21 [Parthenolide] |  |  |  |  |  |  |  |  |  |  |  | active against the parasite Leishmania amazonensis | limited solubility in water | destroy acute myelogenous leukemia cells by inducing apoptosis
